Patent US20040048849A1, “Cyclin-dependent kinase (cdk) and glycolene synthase kinase-3 (gsk-3) inhibitors” (priority 2000, published 2004)

Tested on: DU145 (human prostate cancer cells)
Experiment: Antiproliferative activity, WST1 colorimetric test, DU145
Type: cell-based
Settings: 96 hours treatment, 0 to 25 μM
Procedure: Characterization of the Antiproliferative Activity:
By way of example, the effect of a treatment on two human cell lines Mia-Paca2 and DU145 by the compounds of Examples 1 to 33 described previously will be studied. The cell lines DU145 (human prostate cancer cells) and Mia-PaCa2 (human pancreas cancer cells) were acquired from the American Tissue Culture Collection (Rockville, Md., USA). The cells placed in 95 μl of Dulbecco's Modified Eagle's medium (Gibco-Brl, Cergy-Pontoise, France) completed with 10% foetal calf serum inactivated by heating (Gibco-Brl, Cergy-Pontoise, France), 100 units/l of penicillin and 100 μg/ml/l of streptomycin (Gibco-Brl, 10378-057, Cergy-Pontoise, France), and 2 mM of glutamine (Gibco-Brl, Cergy-Pontoise, France) were seeded on a 96-well plate on day 0. The cells were treated on day 1 for 96 hours with 5 μl of each of the compounds at concentrations increasing from 0 to 25 μM final concentration. At the end of this period, quantification of cell proliferation is evaluated by a colorimetric test based on the cleavage of the tetrazolium salt WST1 by the mitochondrial dehydrogenases in viable cells leading to the formation of formazan (Boehringer Mannheim, Meylan, France). These tests are carried out in duplicate with 8 determinations per concentration tested. […]

Compound: CC[C@H](CO)Nc1nc(NCc2ccccc2)c2ncn(C(C)C)c2n1 [Roscovitine]
- antiproliferative activity regarding DU-145 cells: no antiproliferative activity
